Experiments:
IFNγ-induced IP-10 = test: Assay 14: Pharmacodynamic assay: inhibition of IFNγ-induced IP-10 in rabbits; format: in vivo, New Zealand White rabbits; settings: rabbit
Protocol: The ability of a single intravitreal administration of test compound to inhibit interferon-gamma (IFNγ) induced IP-10 protein levels was measured in rabbit vitreous and retina/choroid tissues.
Solution formulations at concentrations of 1 mg/mL and 4 mg/mL of compound 1 of Example 2 were prepared as in Assay 12. A suspension formulation was prepared by combining crystalline compound 1 of Example 2 with 0.5% hydroxypropyl methylcellulose (HPMC E5), 0.02% Tween 80, and 9 mg/mL sodium chloride in purified water to attain a target concentration of 20 mg/mL.
Male, New Zealand White rabbits (Liveon Biolabs, India) were used for the studies. Animals were acclimated after arrival at the research facilities (Jubilant Biosys Ltd., India). Each rabbit was given a total of two intravitreal (IVT) injections with a total dose volume of 50 μL per eye. The first IVT injection (45 μL per eye) delivered test compound or vehicle at a prescribed time point (i.e. 24 hours for the solution formulations or 1 week for the suspension formulation). The second IVT injection (5 μL per eye) delivered IFNγ (1 μg/eye; Stock solution 1 mg/mL; Kingfisher Biotech) or vehicle for the induction of IP-10. In brief, on the day of the injections, rabbits were anesthetized with an intramuscular injection of ketamine (35 mg/kg) and xylazine (5 mg/kg). Once deeply anesthetized, each eye was rinsed with sterile saline and IVT injections were performed using a 0.5 mL insulin syringe (50 units=0.5 mL) with a 31-gauge needle at the supra-nasal side of the both eyes by marking the position with a Braunstein fixed caliper (2 ¾″) 3.5 mm from the rectus muscle and 4 mm from the limbus.
Tissues were collected 24 hours after the second IVT injection with IFNγ. Vitreous humor (VH) and retina/choroid tissues (R/C) were collected and homogenized, and IP-10 protein levels were measured using a rabbit CXCL10 (IP-10) ELISA kit (Kingfisher Biotech). The percent inhibition of IFNγ-induced IP-10 was calculated in comparison to the vehicle/vehicle and vehicle/IFNγ groups.

[1] = tested on: IL-6 stimulated pSTAT3 in CD3+ T cells; test: Assay 6: Inhibition of IL-6 stimulated pSTAT3 in CD3+ T cells; format: cell-based; settings: T-cell; CD3+ T cells in human PBMCs, flow cytometry; read-out: pIC50, inhibition of IL-6 stimulated pSTAT3 (converted)
Description: A protocol analogous to that of Assay 5 was used to determine the potency of the test compound for inhibition of interleuken-6 (IL-6) stimulated STAT3 phosphorylation.
An Alexa Fluor 647 conjugated anti-pSTAT3 antibody (pY705, Clone 4/P, BD Biosciences) was used to detect STAT3 phosphorylation.

[2] = tested on: IL-13 induced pSTAT6 in lung tissue; test: Assay 9: Murine model of IL-13 induced pSTAT6 induction in lung tissue; format: in vivo, balb/c mice; settings: mouse, 0.5 mg/mL 50 μL oral aspiration; after IL-13 challenge (so in the source)
Protocol: 11-13 is an important cytokine underlying the pathophysiology of asthma (Kudlacz et al. Eur. J. Pharmacol, 2008, 582,154-161). IL-13 binds to cell surface receptors activating members of the Janus family of kinases (JAK) which then phosphorylate STAT6 and subsequently activates further transcription pathways. In the described model, a dose of IL-13 was delivered locally into the lungs of mice to induce the phosphorylation of STAT6 (pSTAT6) which is then measured as the endpoint.
Adult balb/c mice from Harlan were used in the assay. On the day of study, animals were lightly anesthetized with isoflurane and administered either vehicle or test compound (0.5 mg/mL, 50 μL total volume over several breaths) via oral aspiration. Animals were placed in lateral recumbency post dose and monitored for full recovery from anesthesia before being returned to their home cage. Four hours later, animals were once again briefly anesthetized and challenged with either vehicle or IL-13 (0.03 μg total dose delivered, 50 μL total volume) via oral aspiration before being monitored for recovery from anesthesia and returned to their home cage. […] using an anti-pSTAT6 ELISA (rabbit mAb capture/coating antibody; mouse mAb detection/report antibody: anti-pSTAT6-pY641; secondary antibody: anti-mouse IgG-HRP) and analyzed for total drug concentration as described above in Assay 12. […]

[3] = tested on: IFNγ induced CXCL9 secretion in EpiAirway tissue cultures; test: Assay 15: IFNγ induced CXCL9 in human 3D airway cultures; format: cell-based; settings: 192 h, Day 8, average from 3 or 4 donors, read-out: % inhibition of IFNγ induced CXCL9 secretion (±STDV)
Protocol: EpiAirway tissue cultures were obtained from Mattek (AIR-100). Cultures were derived from asthmatic donors. In a cell culture insert, human derived tracheal/bronchial epithelial cells were grown and differentiated on a porous membrane support, allowing an air-liquid interface with warmed culture medium below the cells and a gaseous test atmosphere above. Tissues were cultured in maintenance media (Mattek, AIR-100-MM) in a 37° C., 5% CO2 humidified incubator. Four donors were tested. On Day 0, tissue cultures were treated with test compounds at 10 μM, 1 μM and/or 0.1 μM. Compounds were diluted in dimethyl sulfoxide (DMSO, Sigma) to a final concentration of 0.1%. DMSO at 0.1% was used as a vehicle control. Test compounds were incubated with cultures for 1 hour at 37° C., 5% CO2, followed by the addition of pre-warmed media containing IFNγ (R&D Systems) or IL-27 (R&D Systems) at a final concentration at 100 ng/ml. Tissue cultures were maintained for 8 days. Media was replaced every 2 days with fresh media containing compounds and IFNγ or IL-27. On Day 8, tissue cultures and supernatants were collected for analysis. Supernatant samples were assayed for CXCL10 (IP-10) and CXCL9 (MIG) using luminex analysis (EMD Millipore). Data is expressed as % Inhibition +/−standard deviation (±STDV). Percent inhibition was determined by compound inhibitory potency against IFNγ or IL-27 induced CXCL10 or CXCL9 secretion compared to vehicle treated cells. Data is the average from 3 or 4 donors. Compound 1 was able to inhibit IFNγ induced CXCL10 secretion by 99%±2.0 (at 10 μM), 71%±19 (at […]) and 17%±12 (at 0.1 μM) when compared to vehicle control. Compound 1 was able to inhibit IFNγ induced CXCL9 secretion by 100%±0.3 (at 10 μM), 99%±0.9 (at 1 μM) and 74%±17 (at 0.1 μM) when compared to vehicle. […] Compound 1 was able to inhibit IL-27 induced CXCL9 secretion by 100%±0 (at 10 μM), 95%±3.7 (at 1 μM) and 75%±3.5 (at 0.1 μM) when compared to vehicle control.

[4] = IVT crystalline suspension 20 mg/mL (Example 2), 1 week pre-treatment
[5] = IVT solution, 45 μg, 24 hour pre-treatment
[6] = IVT solution, 180 μg, 24 hour pre-treatment

CCc1cc(O)c(F)cc1-c1ccc2c(-c3nc4c([nH]3)CCN(C3CCN(C)CC3)C4)n[nH]c2c1 [Compound 1, 5-ethyl-2-fluoro-4-(3-(5-(1-methylpiperidin-4-yl)-4,5,6,7-tetrahydro-1H-imidazo[4,5-c]pyridin-2-yl)-1H-indazol-6-yl)phenol]
inhibition of IFNγ-induced IP-10 in retina/choroid tissues (IFNγ-induced IP-10; [4]): 100% | inhibition of IFNγ-induced IP-10 in vitreous humor (IFNγ-induced IP-10; [4]): 100% | inhibition of IFNγ-induced IP-10 in retina/choroid tissue (IFNγ-induced IP-10; [5]): 86% | inhibition of IFNγ-induced IP-10 in vitreous humor (IFNγ-induced IP-10; [5]): 70% | inhibition of IFNγ-induced IP-10 in retina/choroid tissue (IFNγ-induced IP-10; [6]): 100% | inhibition of IFNγ-induced IP-10 in vitreous humor (IFNγ-induced IP-10; [6]): 91% | IC50 [1]: 39.8 nM | inhibition of STAT6 phosphorylation in lung [2]: about 60% | inhibition at 0.1 µM ([3]; at 0.1 μM): 74% | inhibition at 1 µM ([3]; at 1 μM): 99% | inhibition at 10 µM ([3]; at 10 μM): 100%

Reference: patent publication US10251874B2, “Crystalline forms of a JAK inhibitor compound” (THERAVANCE BIOPHARMA R&D IP, LLC, priority 2017, dated 2019)
